Literature values in patent US20260263382A1, “TRANSDERMAL PATCH COMPRISING RASAGILINE MESYLATE AND PREPARATION METHOD THEREFOR” (priority 2023, published 2026).
Structures can show the parent of a compound that is named as a salt. Where two headings read alike, the source gives them in different places.

Tests used:
[1] = carried in polyacrylate or silicone pressure-sensitive adhesives or polyvinyl alcohol, free base under weakly alkaline conditions
[2] = oral preparations
[3] = oral administration at 20 mg/d for 2 weeks

Row | Main drug content [1] | Bioavailability [2] [%] | SMILES | Adverse reaction [3] | Main drug content ([1]; listed as rasagiline free base)
1 | no change | – | C#CCN[C@@H]1CCc2ccccc21 [rasagiline mesylate] | – | –
2 | – | 36 | C#CCN[C@@H]1CCc2ccccc21 [Rasagiline] | no serious adverse reaction | declines rapidly, even with complete degradation
